Experimental data as given in patent publication US4433182A, “Insecticidal 2,2'-bridged[1,1'-biphenyl]-3-ylmethyl esters” (FMC Corporation, priority 1981, dated 1984).
Where two headings read alike, the source gives them in different places.

Assays:
Assay type in all cases: in vivo
[1] = system: southern armyworm (Spodoptera eridania); assay: Topical application to southern armyworm larvae; conditions: SAW, 24 hours after application
Method: (§1) The activity was evaluated in topical application to southern armyworm (Spodoptera eridania), Mexican bean beetle (Epilachna varivestis), large milkweed bug (Oncopeltus fasciatus), cabbage looper (Trichoplusia ni), and tobacco budworm (Heliothis virescens). Two replicates of 10 test larvae per replicate were placed in 9 cm petri dishes, each lined with a piece of filter paper and a food source. On the second or third dorsal thoracic segment of each larva was placed a 1 microliter droplet containing the desired amount of the test compound in acetone. The toxic effect of the compound was determined 24 hours after application. An insect was considered dead if it could no longer right itself and move in an oriented pattern.

[2] = system: pea aphid (Acyrthosiphon pisum); assay: Foliar application, pea aphid mortality; conditions: read-out: Mortality (% killed)
Method: (§2) The compounds were also tested in foliar applications at various concentrations in aqueous solutions containing 10% acetone and 0.25% emulsifier. The plants (English fava bean for pea aphid and pinto bean for the remaining species) were placed on a revolving turntable in a hood, and the test solutions were applied with a sprayer. The test solutions were applied to the upper and lower surfaces of the plant leaves while the turntable revolved 10 times (5 for upper surface and 5 for lower surface). The total spray time was approximately one minute, and the leaves were covered to runoff. In every case the lowest rate was applied first and the highest rate last. The plants were then allowed to dry. The treated leaves were removed and placed in 240 ml or 480 ml wax treated containers. Ten individuals of the appropriate species were placed in each container and the container capped. Mortality was read 48 hours post-treatment unless otherwise noted. Two replicates of ten individuals were made at each rate. Foliar evaluation used southern armyworm (Spodoptera eridania), Mexican bean beetle (Epilachna varivestis), pea aphid (Acyrthosiphon pisum), and twospotted spider mite (Tetranychus urticae).

[3] = system: twospotted spider mite (Tetranychus urticae); assay: Foliar application, twospotted spider mite mortality; conditions: read-out: Mortality (% killed)
Method: as §2

[4] = system: Mexican bean beetle (Epilachna varivestis); assay: Foliar application, Mexican bean beetle mortality; conditions: read-out: Mortality (% killed)
Method: as §2

[5] = system: large milkweed bug (Oncopeltus fasciatus); assay: Topical application to large milkweed bug; conditions: MWB, 24 hours after application
Method: as §1

[6] = system: Mexican bean beetle (Epilachna varivestis); assay: Topical application to Mexican bean beetle; conditions: MBB, 24 hours after application
Method: as §1

[7] = system: cabbage looper (Trichoplusia ni); assay: Topical application to cabbage looper; conditions: CL, 24 hours after application
Method: as §1

[8] = system: tobacco budworm (Heliothis virescens); assay: Topical application to tobacco budworm; conditions: TBW, 24 hours after application
Method: as §1

[9] = system: southern armyworm (Spodoptera eridania); assay: Foliar application, southern armyworm mortality; conditions: read-out: Mortality (% killed)
Method: as §2

Question: What does the source list for `CC1(C)[C@H](C=C(Cl)C(F)(F)F)[C@@H]1C(=O)OCc1cccc2c1CCCCc1ccccc1-2` (relative stereo) [Ex. VII (cis), (5,6,7,8-tetrahydrodibenzo[a,c]cycloocten-4-yl)methyl cis-3-(2-chloro-3,3,3-trifluoropropenyl)-2,2-dimethylcyclopropanecarboxylate]?
Answer: LD50 [1]: 410 ng/insect; mortality at 4 ppm ([2]; PA, foliar, 48 hours): 0%; mortality at 16 ppm ([3]; TSM, foliar, 48 hours): 24%; mortality at 4 ppm ([4]; MBB, foliar, 48 hours): 95%; LD50 [5]: 396 ng/insect; LD50 [6]: 20.6 ng/insect

Question: With `CC1(C)[C@H](C=C(Cl)Cl)[C@@H]1C(=O)OCc1cccc2c1CCCc1ccccc1-2` (relative stereo) [Ex. III (cis), (6,7-dihydro-5H-dibenzo[a,c]cyclohepten-4-yl)methyl cis-3-(2,2-dichloroethenyl)-2,2-dimethylcyclopropanecarboxylate] as the molecule, how does the LD50 [1] read?
Answer: 96 ng/insect

Question: What about the LD50 [7] of the same molecule?
Answer: 62 ng/insect

Question: And the LD50 [8]?
Answer: 375 ng/insect

Question: What about the mortality at 4.5 ppm ([2]; PA, foliar, 4.5 ppm, 48 hours) of the same molecule?
Answer: 55%

Question: What about the mortality at 10 ppm ([2]; PA, foliar, 10 ppm, 48 hours) of the same molecule?
Answer: 90%

Question: And the mortality at 10 ppm ([3]; TSM, foliar, 10 ppm, 48 hours)?
Answer: 13%

Question: What about the mortality at 4.5 ppm ([4]; MBB, foliar, 4.5 ppm, 48 hours) of the same molecule?
Answer: 55%

Question: What about the mortality at 10 ppm ([4]; MBB, foliar, 10 ppm, 48 hours) of the same molecule?
Answer: 85%

Question: What about the LD50 [5] of the same molecule?
Answer: 104 ng/insect

Question: What about the LD50 [6] of the same molecule?
Answer: 11 ng/insect

Question: And the mortality at 4.5 ppm ([9]; SAW, foliar, 4.5 ppm, 48 hours)?
Answer: 5%

Question: And the mortality at 10 ppm ([9]; SAW, foliar, 10 ppm, 48 hours)?
Answer: 40%

Question: How did the LD50 [1] turn out when `CC1(C)[C@H](C=C(Cl)Cl)[C@@H]1C(=O)OCc1cccc2c1CCc1ccccc1-2` (relative stereo) [Ex. I (cis), (9,10-dihydro-1-phenanthryl)methyl cis-3-(2,2-dichloroethenyl)-2,2-dimethylcyclopropanecarboxylate] was run?
Answer: 121 ng/insect

Question: And the LD50 [7]?
Answer: 241 ng/insect

Question: And the LD50 [8]?
Answer: 193 ng/insect

Question: What about the mortality at 16 ppm ([2]; PA, foliar, 48 hours) of the same molecule?
Answer: 55%

Question: What about the mortality at 32 ppm ([2]; PA, foliar, 48 hours) of the same molecule?
Answer: 90%

Question: And the mortality at 16 ppm ([4]; MBB, foliar, 48 hours)?
Answer: 30%

Question: What about the mortality at 32 ppm ([4]; MBB, foliar, 48 hours) of the same molecule?
Answer: 35%

Question: And the mortality at 80 ppm ([4]; MBB, foliar, 80 ppm, 48 hours)?
Answer: 75%

Question: And the LD50 [5]?
Answer: 176 ng/insect

Question: And the LD50 [6]?
Answer: 64 ng/insect

Question: What about the mortality at 16 ppm ([9]; SAW, foliar, 48 hours) of the same molecule?
Answer: 10%

Question: What about the mortality at 32 ppm ([9]; SAW, foliar, 32 ppm, 48 hours) of the same molecule?
Answer: 30%

Question: And the mortality at 80 ppm ([9]; SAW, foliar, 80 ppm, 48 hours)?
Answer: 80%

Question: `CC1(C)[C@H](C(=O)OCc2cccc3c2CCc2ccccc2-3)[C@@H]1C=C(Cl)C(F)(F)F` (relative stereo) [Ex. II (cis), (9,10-dihydro-1-phenanthryl)methyl cis-3-(2-chloro-3,3,3-trifluoromethyl-1-propenyl)-2,2-dimethylcyclopropanecarboxylate] was tested. Which LD50 [1] did it give?
Answer: 36 ng/insect

Question: And the LD50 [7]?
Answer: 61 ng/insect

Question: What about the LD50 [8] of the same molecule?
Answer: 45 ng/insect

Question: And the mortality at 10 ppm ([2]; 48 h)?
Answer: 85%

Question: What about the mortality at 32 ppm ([3]; 48 h) of the same molecule?
Answer: 78%

Question: And the mortality at 8 ppm ([4]; 48 h)?
Answer: 90%

Question: And the LD50 [5]?
Answer: 170 ng/insect

Question: And the LD50 [6]?
Answer: 9.4 ng/insect

Question: What about the mortality at 8 ppm ([9]; 48 h) of the same molecule?
Answer: 30%

Question: And the mortality at 32 ppm ([9]; 48 h)?
Answer: 95%

Question: `CC1(C)[C@@H](C=C(Cl)Cl)[C@@H]1C(=O)OCc1cccc2c1CCCc1ccccc1-2` (relative stereo) [Ex. III (trans), (6,7-dihydro-5H-dibenzo[a,c]cyclohepten-4-yl)methyl trans-3-(2,2-dichloroethenyl)-2,2-dimethylcyclopropanecarboxylate] was tested. Which LD50 [1] did it give?
Answer: 95 ng/insect

Question: And the LD50 [7]?
Answer: 92 ng/insect

Question: What about the LD50 [8] of the same molecule?
Answer: 355 ng/insect

Question: What about the mortality at 4 ppm ([2]; PA, foliar, 48 hours) of the same molecule?
Answer: 80%

Question: What about the mortality at 16 ppm ([2]; PA, foliar, 48 hours) of the same molecule?
Answer: 90%

Question: And the mortality at 4 ppm ([4]; MBB, foliar, 48 hours)?
Answer: 20%

Question: What about the mortality at 16 ppm ([4]; MBB, foliar, 48 hours) of the same molecule?
Answer: 55%

Question: What about the LD50 [5] of the same molecule?
Answer: 315 ng/insect

Question: And the LD50 [6]?
Answer: 50 ng/insect

Question: What about the mortality at 4 ppm ([9]; SAW, foliar, 48 hours) of the same molecule?
Answer: 10%

Question: And the mortality at 16 ppm ([9]; SAW, foliar, 48 hours)?
Answer: 100%

Question: `CC1(C)[C@@H](C=C(Cl)Cl)[C@@H]1C(=O)OCc1cccc2c1Cc1ccccc1-2` (relative stereo) [Ex. V (trans), 9H-fluorene-1-methyl trans-3-(2,2-dichloroethenyl)-2,2-dimethylcyclopropanecarboxylate] was tested. Which mortality at 64 ppm ([2]; 48 h) did it give?
Answer: 20%

Question: And the mortality at 500 ppm ([2]; 48 h)?
Answer: 0%

Question: What about the mortality at 500 ppm ([3]; 48 h) of the same molecule?
Answer: 0%

Question: What about the mortality at 64 ppm ([4]; 48 h) of the same molecule?
Answer: 15%

Question: And the mortality at 64 ppm ([9]; 48 h)?
Answer: 0%

Question: And the mortality at 500 ppm ([9]; 48 h)?
Answer: 25%

Question: Which results are given for `CC1(C)[C@H](C(=O)OCc2cccc3c2CCCc2ccccc2-3)[C@@H]1C=C(Cl)C(F)(F)F` (relative stereo) [Ex. IV (cis), (6,7-dihydro-5H-dibenzo[a,c]cyclohepten-4-yl)methyl cis-3-(2-chloro-3,3,3-trifluoromethyl-1-propenyl)-2,2-dimethylcyclopropanecarboxylate]?
Answer: LD50 [1]: 54 ng/insect; LD50 [7]: 64 ng/insect; LD50 [8]: 212 ng/insect; mortality at 0.25 ppm ([2]; 48 h): 80%; mortality at 2.1 ppm ([3]; 48 h): 4%; mortality at 10 ppm ([3]; 48 h): 100%; mortality at 2.1 ppm ([4]; 48 h): 100%; LD50 [5]: 83 ng/insect; LD50 [6]: 4.26 ng/insect; mortality at 10 ppm ([9]; 48 h): 75%

Question: For `CC1(C)[C@H](C=C(Cl)Cl)[C@@H]1C(=O)OCc1cccc(-c2ccccc2)c1` (relative stereo) [Ref., [(1,1biphenyl)-3-yl]methyl cis3-(2,2-dichloroethenyl)-2,2-dimethylcyclopropanecarboxylate, reference compound], which LD50 [1] is on record?
Answer: 27 ng/insect

Question: What about the LD50 [7] of the same molecule?
Answer: 560 ng/insect

Question: What about the LD50 [8] of the same molecule?
Answer: 2330 ng/insect

Question: What about the mortality at 32 ppm ([2]; PA, foliar, 48 hours) of the same molecule?
Answer: 70%

Question: And the mortality at 500 ppm ([3]; TSM, foliar, 500 ppm, 48 hours)?
Answer: 33%

Question: And the mortality at 32 ppm ([4]; MBB, foliar, 48 hours)?
Answer: 50%

Question: What about the LD50 [5] of the same molecule?
Answer: 620 ng/insect

Question: And the LD50 [6]?
Answer: 18 ng/insect

Question: What about the mortality at 4 ppm ([9]; SAW, foliar, 48 hours) of the same molecule?
Answer: 90%

Question: `CC1(C)[C@H](C(=O)OCc2cccc3c2Cc2ccccc2-3)[C@@H]1C=C(Cl)C(F)(F)F` (relative stereo) [Ex. VI (cis), 9H-fluorene-1-methyl cis-3-(2-chloro-3,3,3-trifluoromethyl-1-propenyl)-2,2-dimethylcyclopropanecarboxylate] was tested. Which LD50 [1] did it give?
Answer: 1160 ng/insect

Question: What about the mortality at 64 ppm ([2]; 48 h) of the same molecule?
Answer: 50%

Question: What about the mortality at 500 ppm ([2]; 48 h) of the same molecule?
Answer: 90%

Question: And the mortality at 500 ppm ([3]; 48 h)?
Answer: 0%

Question: And the mortality at 64 ppm ([4]; 48 h)?
Answer: 0%

Question: And the LD50 [6]?
Answer: 762 ng/insect

Question: What about the mortality at 64 ppm ([9]; 48 h) of the same molecule?
Answer: 95%

Question: And the mortality at 500 ppm ([9]; 48 h)?
Answer: 100%

Question: How did the LD50 [1] turn out when `CC1(C)[C@H](C(=O)OCc2cccc3c2Cc2ccccc2-3)[C@@H]1C=C(Cl)Cl` (relative stereo) [Ex. V (cis), 9H-fluorene-1-methyl cis-3-(2,2-dichloroethenyl)-2,2-dimethylcyclopropanecarboxylate] was run?
Answer: 460 ng/insect

Question: What about the mortality at 64 ppm ([2]; 48 h) of the same molecule?
Answer: 30%

Question: What about the mortality at 500 ppm ([2]; 48 h) of the same molecule?
Answer: 90%

Question: And the mortality at 500 ppm ([3]; 48 h)?
Answer: 0%

Question: What about the mortality at 64 ppm ([4]; 48 h) of the same molecule?
Answer: 0%

Question: And the LD50 [6]?
Answer: 3320 ng/insect

Question: What about the mortality at 64 ppm ([9]; 48 h) of the same molecule?
Answer: 0%

Question: And the mortality at 500 ppm ([9]; 48 h)?
Answer: 100%

Question: Which results are given for `CC1(C)[C@H](C(=O)OCc2cccc3c2CCCCc2ccccc2-3)[C@@H]1C=C(Cl)Cl` [Ex. VIII (1R,cis), (5,6,7,8-tetrahydrodibenzo[a,c]cycloocten-4-yl)methyl 1R,cis-3-(2,2-dichloroethenyl)-2,2-dimethylcyclopropanecarboxylate]?
Answer: LD50 [1]: 201 ng/insect; mortality at 4 ppm ([2]; PA, foliar, 48 hours): 0%; mortality at 16 ppm ([3]; TSM, foliar, 48 hours): 14%; mortality at 4 ppm ([4]; MBB, foliar, 48 hours): 50%; LD50 [5]: 460 ng/insect
